From the NIST ThermoML archive (doi:10.1021/acs.jced.7b00740)
Numbers after ± are expanded uncertainties.

Legend:
[1] = Liquid; for mass density: 293.15 K, 101.33 kPa, Pycnometric method; for vapor or sublimation pressure: Ebulliometric method (Recirculating still)
[2] = refractive index (Na D-line) (dimensionless); conditions: 298.15 K; 101.33 kPa; Liquid; Standard Abbe refractometry

## CCCOCOCC [1-(ethoxymethoxy)propane]
[1]
  mass density: 831.1 ± 0.7 kg/m3
[1]; 386.53 K
  vapor or sublimation pressure: 101.33 ± 1 kPa
[2]
  refractive index: 1.3818 ± 0.0005

## CCCOCOC [1-(methoxymethoxy)propane]
[1]
  mass density: 841.2 ± 0.7 kg/m3
[1]; 366.13 K
  vapor or sublimation pressure: 101.33 ± 1 kPa
[2]
  refractive index: 1.3757 ± 0.0005

## COCOCOC [2,4,6-trioxaheptane]
[1]
  mass density: 958 ± 0.8 kg/m3
[1]; 378 K
  vapor or sublimation pressure: 101.33 ± 1 kPa
[2]
  refractive index: 1.379 ± 0.0005

## CCCCO [butan-1-ol]
[1]
  mass density: 809.5 ± 0.7 kg/m3
[1]; 390.92 K
  vapor or sublimation pressure: 101.33 ± 1 kPa
[2]
  refractive index: 1.3971 ± 0.0005

## CCO [ethanol]
[1]
  mass density: 789.2 ± 0.7 kg/m3
[1]; 351.51 K
  vapor or sublimation pressure: 101.33 ± 1 kPa
[2]
  refractive index: 1.3595 ± 0.0005

## CCCO [propan-1-ol]
[1]
  mass density: 803.6 ± 0.7 kg/m3
[1]; 370.42 K
  vapor or sublimation pressure: 101.33 ± 1 kPa
[2]
  refractive index: 1.3835 ± 0.0005
